Columns and labels:
Assay type in all cases: cell-based, human
[1] = test system: memory CD45RO+CD25−CCR6+CD4+ T cells; experiment: IL-17 production in sorted adult blood memory CD4+ T cells cultured with or without IL-1β in serum-containing media (intracellular staining); settings: day 6
Method: (§1) Blood samples were obtained from the New York Blood Center. Mononuclear cells were prepared from buffy coats of healthy adult donors or from cord blood on FicollPAQUE gradients. CD4^+ T cells were isolated on an autoMACS Pro using Miltenyi bead depletion of CD14^+ and CD25^+ cells followed by positive selection of CD4^+ cells. Cord blood CD4^+ T cells were >97% pure and 100% CD45RA^+ and were used as such for initial transduction experiments. Adult CD4^+ T cell subsets and naive cord blood CD4^+ T cells were further purified respectively as CD3^+CD4^+CD25^−CD45RO^−/+ and CD3^+CD4^+CD25^−HLA-DR^−CD45RA^+ by cell sorting on a FACSAria.
(§2) Cells were cultivated in either RPMI1640 (Invitrogen) supplemented with 10% fetal bovine serum (Hyclone), penicillin-streptomycin, 2 mM glutamine, 10 mM HEPES, 1 mM pyruvate and 0.1 mM non-essential amino acids or serum-free XVIVO-20 (Lonza) supplemented with penicillin-streptomycin in a 37° C. 5% CO2 incubator. […]
(§3) For intracellular cytokine staining, cells were incubated for 5 hours with 50 ng/ml PMA (Sigma), 500 ng/ml Ionomycin (Sigma), and GolgiStop (BD). […] Flow cytometric measures were performed on a LSR II (BD Biosciences) instrument and analyzed using FlowJo software (Tree Star Inc.). […]

[2] = test system: Naive cord blood CD4+ T cells; experiment: mRNA levels of Th17 markers (IL17, IL26, IL17F, RORC, RORA, IL23R) during Th17 cell differentiation of naive cord blood CD4+ T cells (real-time PCR); settings: day 6; for IL-17F expression / IL-23R expression: cytokine alone (with IL-2)
Method: as §1
(§4) Cells were cultivated in either RPMI1640 (Invitrogen) supplemented with 10% fetal bovine serum (Hyclone), penicillin-streptomycin, 2 mM glutamine, 10 mM HEPES, 1 mM pyruvate and 0.1 mM non-essential amino acids or serum-free XVIVO-20 (Lonza) supplemented with penicillin-streptomycin in a 37° C. 5% CO2 incubator. CD4^+ T cells were stimulated by addition of anti-mouse IgG magnetic beads (Pierce) previously coated with purified anti-CD3 and anti-CD28 at final concentrations of 1 bead/cell and 1 μg/ml of each antibody. […] Lentiviral supernatants were added at an MOI ranging from 1 to 10. […] For the shRNA experiment, puromycin was added at day 2 at 2 μg/ml. For polarization experiments, cells were seeded at a concentration of 5×10^5 to 10^6 cells/ml in U-bottom 96 well plates with anti-CD3/CD28 coated beads. […] For long-term experiments, cells were split as needed. […] Cells were harvested at day 6 for intracellular staining and real-time PCR analysis except where specified otherwise.
(§5) RNA was extracted by TRIZOL (Invitrogen) and cDNA was synthesized with Superscript II (Invitrogen) and random primers. cDNA was analyzed by real-time quantitative PCR in triplicates by using iQ CYBR Green Supermix (Bio-Rad) or QuantiTect Multiplex PCR mix (Qiagen) in the iCycler Sequence Detection System (Bio-Rad). The starting quantity (SQ) of the initial cDNA sample was calculated from primer-specific standard curves by using the iCycler Data Analysis Software. The expression level of each gene was normalized to beta-actin expression level using the standard curve method. Fold changes were calculated by normalizing to the first sample of each set. Error bars were calculated based on triplicate measurements of each gene. The primer sets for real-time PCR are detailed in Table 2.

[3] = test system: Cord blood CD4+ T cells transduced with RORγT; experiment: IL-17 and FOXP3 expression following RORγT transduction of cord blood CD4+ T cells (intracellular staining); settings: for effect on the suppression of IL-17 production induced by TGF-β: RORγT-transduced cells, with TGF-β; for increase of the proportion of IL-17-producing cells after forced expression of RORγT: cytokine 10 ng/ml
[4] = test system: naive CD45RO−CD25−CCR7+ T cells; experiment: IL-17 production in sorted adult blood naive CD4+ T cells cultured with or without IL-1β in serum-containing media (intracellular staining); settings: day 6
Method: as §1, §2, §3

[5] = test system: Naive cord blood CD4+ T cells; experiment: Th17 cell polarization of naive cord blood CD4+ T cells in serum-free media (intracellular and surface staining: IL-17, IL-22, FOXP3, CCR6); settings: for suppression of TGF-β-induced FOXP3 expression: added to TGF-β
Method: as §1, with “Cord blood CD4^+ T cells were >97% pure and 100% CD45RA^+ and were used as such for initial transduction experiments.” left out
as §4
For intracellular cytokine staining, cells were incubated for 5 hours with 50 ng/ml PMA (Sigma), 500 ng/ml Ionomycin (Sigma), and GolgiStop (BD). Surface staining was performed by incubation with the corresponding fluorescently labeled antibodies for 15 min on ice. Intracellular staining was performed using the Cytofix/Cytoperm buffer set (BD). Briefly, cells were fixed and permeabilized for 30 min at room temperature and stained in permeabilization buffer for 30 min at room temperature. Flow cytometric measures were performed on a LSR II (BD Biosciences) instrument and analyzed using FlowJo software (Tree Star Inc.). Antibodies are detailed in Table 1. FOXP3 was stained using FOXP3 staining buffers (eBioscience). The present inventors used the FJK-16s antibody, which was originally reported as an anti-mouse/rat FoxP3 antibody.

RORC = RORC expression in CD45RO− adult naive CD4+ T cells cultivated with cytokines (real-time PCR); settings: cytokine alone
Method: as §1, with “FACSAria. […]” for “FACSAria.”
as §5, with “The expression level of each gene was normalized to beta-actin expression level using the standard curve method.” left out, “The primer sets for real-time PCR are detailed in Table 2.” left out

[6] = increasing concentration of TGF-β, day 6

IL-1β: cytokine, 10 ng/ml IL-1β (eBioscience)
increase of IL-17 production [1]: two-fold | IL-17F expression [2]: Some expression | IL-23R expression [2]: not | effect on the suppression of IL-17 production induced by TGF-β [3]: partially relieved | increase of the proportion of IL-17-producing cells after forced expression of RORγT ([3]; day 6): about two-fold | effect on IL-17 production [4]: no effect | suppression of TGF-β-induced FOXP3 expression ([5]; day 6): not

TGF-β: cytokine, TGF-β1 (PeproTech)
RORA expression [2]: slightly induced | levels of IL-26 mRNA [2]: increased with the dose | RORC expression ([2]; increasing concentrations of TGF-β): gradually induced | effect on IL-17 production after forced expression of RORγT ([3]; various concentrations of TGF-β, day 6): potently suppressed | RORγT (RORC) expression (RORC): induced dose-dependent RORγT expression | CCR6 cell surface expression ([5]; TGF-β alone, day 6): induced | FOXP3 expression [5, 6]: induced | IL-22 expression [5, 6]: progressively inhibited

IL-6: cytokine, 10 ng/ml IL-6 (eBioscience)
effect on the suppression of IL-17 production induced by TGF-β [3]: partially relieved | increase of the proportion of IL-17-producing cells after forced expression of RORγT ([3]; day 6): about two-fold | suppression of TGF-β-induced FOXP3 expression ([5]; day 6): able to inhibit | induction of IL-17 ([5]; both IL-1β and TGF-β included, day 6): active, albeit not as strongly as IL-23 | induction of IL-17 ([5]; combined with TGF-β alone): failed to induce

soluble IL-21R: neutralizing soluble IL-21R (R&D) [reference compound]
effect on IL-17 expression ([5]; IL-23+IL-1β+IL-2+TGF-β, at levels that inhibited STAT3 phosphorylation, day 6): no effect

B1: IL-23: cytokine, 10 ng/ml IL-23 (eBioscience) (protein, UniProt Q9NPF7 20-189; P29460 23-328, looked up)
Interleukin-23 subunit alpha: RAVPGGSSPAWTQCQQLSQKLCTLAWSAHPLVGHMDLREEGDEETTNDVPHIQCGDGCDPQGLRDNSQFCLQRIHQGLIFYEKLLGSDIFTGEPSLLPDSPVGQLHASLLGLSQLLQPEGHHWETQQIPSLSPSQPWQRLLLRFKILRSLQAFVAVAARVFAHGAATLSP
Interleukin-12 subunit beta: IWELKKDVYVVELDWYPDAPGEMVVLTCDTPEEDGITWTLDQSSEVLGSGKTLTIQVKEFGDAGQYTCHKGGEVLSHSLLLLHKKEDGIWSTDILKDQKEPKNKTFLRCEAKNYSGRFTCWWLTTISTDLTFSVKSSRGSSDPQGVTCGAATLSAERVRGDNKEYEYSVECQEDSACPAAEESLPIEVMVDAVHKLKYENYTSSFFIRDIIKPDPPKNLQLKPLKNSRQVEVSWEYPDTWSTPHSYFSLTFCVQVQGKSKREKKDRVFTDKTSATVICRKNASISVRAQDRYYSSSWSEWASVPCS
IL-17F expression [2]: no effect | IL-23R expression [2]: induced to some extent | suppression of TGF-β-induced FOXP3 expression ([5]; day 6): able to suppress
